Measurements: paper PMC10537087, “Evaluating Known Zika Virus NS2B-NS3 Protease Inhibitor Scaffolds via In Silico Screening and Biochemical Assays” (Pharmaceuticals, 2023)

How the values were obtained:
[1] = target: ZIKV NS2B-NS3pro (Zika virus, UniProt A0A024B7W1, C1582S/C1645S/R1467A/R1531G); assay: ZIKV NS2B-NS3pro inhibitory assay with fluorogenic substrate Bz-Nle-Lys-Lys-Arg-AMC; type: biochemical; details: for % ZIKV NS2B/NS3pro Inhibition [Enzyme] = 0.2 nM / % ZIKV NS2B/NS3pro Inhibition [Enzyme] = 2 nM: CHAPS 1 mM; for % ZIKV NS2B/NS3pro Inhibition (100 µM) 0.001% Triton / % ZIKV NS2B/NS3pro Inhibition (100 µM) 0.01% Triton / % ZIKV NS2B/NS3pro Inhibition (100 µM) BSA / % ZIKV NS2B/NS3pro Inhibition (100 µM) With Preincubation / % ZIKV NS2B/NS3pro Inhibition (100 µM) Without Preincubation: compound 100 µM; for % ZIKV NS2B/NS3pro Inhibition (100 µM) 0.001% Triton: 0.001% Triton X-100, no Tween-20; for % ZIKV NS2B/NS3pro Inhibition (100 µM) 0.001% Triton / % ZIKV NS2B/NS3pro Inhibition (100 µM) 0.01% Triton: 10 min preincubation; for % ZIKV NS2B/NS3pro Inhibition (100 µM) 0.01% Triton: 0.01% Triton X-100, no Tween-20; for % ZIKV NS2B/NS3pro Inhibition (100 µM) BSA: 10 min pre-incubation with BSA 1 mg/mL before enzyme; for % ZIKV NS2B/NS3pro Inhibition (100 µM) With Preincubation: 10 min preincubation with enzyme; for % ZIKV NS2B/NS3pro Inhibition (100 µM) With Preincubation / % ZIKV NS2B/NS3pro Inhibition (100 µM) Without Preincubation: 0.005% Tween-20; for % ZIKV NS2B/NS3pro Inhibition [Enzyme] = 0.2 nM / % ZIKV NS2B/NS3pro Inhibition (100 µM) With Preincubation: enzyme 0.2 nM; for % ZIKV NS2B/NS3pro Inhibition (100 µM) Without Preincubation: no preincubation; for Hill Slope Replica 1 / Hill Slope Replica 2: from dose-response curve
[2] = target: cruzain (Trypanosoma cruzi, UniProt P25779); assay: Cruzain counter-screening enzyme assay (Z-Phe-Arg-AMC); type: biochemical; details: 10 min preincubation, pH 5.5
cruzain, sequence (P25779 123-467): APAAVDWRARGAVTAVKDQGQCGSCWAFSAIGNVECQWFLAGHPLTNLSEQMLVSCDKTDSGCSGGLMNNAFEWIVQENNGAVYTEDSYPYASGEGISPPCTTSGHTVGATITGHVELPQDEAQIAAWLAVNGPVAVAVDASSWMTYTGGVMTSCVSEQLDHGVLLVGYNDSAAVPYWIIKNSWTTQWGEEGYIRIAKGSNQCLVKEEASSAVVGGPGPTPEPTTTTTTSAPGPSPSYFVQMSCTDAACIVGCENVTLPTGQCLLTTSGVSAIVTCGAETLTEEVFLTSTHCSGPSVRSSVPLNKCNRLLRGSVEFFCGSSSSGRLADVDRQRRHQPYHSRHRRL
Method: Cruzain activity was measured by monitoring the fluorescence signal obtained by cleavage of the fluorogenic substrate Z-Phe-Arg-AMC, following a well-established protocol. The fluorescence intensity (excitation λ: 340 nm; emission λ: 440 nm) was monitored for at least 5 min. All assays were performed in sodium acetate 0.1 M at pH 5.5 and β-mercaptoethanol 10 mM. The final protein concentration was 0.1 nM, and the substrate concentration was 2.5 µM. Each condition was tested in triplicate and two independent assays (n = 6 data points), with preincubation of the enzyme for 10 min at 25 °C. Assays were performed at compound concentrations near the IC50 value against ZIKV NS2B-NS3pro.

[3] = Cytotoxicity MTT assay (CC50); details: African green monkey, Vero (ATCC CCL-81) cells
Method: (§1) The Vero (ATCC® CCL-81™) cell line was used for the cytotoxicity assays and antiviral activity evaluation against ZIKV. Cells were cultured in Eagle’s minimum essential media (MEM) (Cultilab, Campinas, Brazil). The media was supplemented with 5% fetal bovine serum (FBS) (Cultilab, Brazil), in addition to 100 IU/mL penicillin (Cellofarm, Rio De Janeiro, Brazil), 100 μg/mL streptomycin (Merck, Darmstadt, Germany), and 0.25 μg/mL amphotericin B (Cultilab, Brazil).
(§2) Cells were seeded in 96-well microplates (4.0 × 10^4 cells per well) and incubated at 37 °C and 5% CO2 for 24 h. Then, 200 µL of MEM with 1% FBS containing a serial dilution of the compounds (100 to 12.5 µM) was added. As vehicle control, a serial dilution of DMSO was used. After 72 h of incubation under the same conditions, 100 μL of 3-(4,5-dimethylthiazol-2-yl)-2,5-diphenyltetrazolium bromide (MTT; ThermoFischer Scientific, Waltham, MA, USA) [76] diluted in MEM (0.5 mg/mL) was added to each well and incubated for 3 h. The media was removed, and 100 μL of DMSO was added to each well to solubilize formazan crystals and shaken for 20 min. The absorbance was read at 570 nm using a spectrophotometer (VersaMax, Molecular Devices, San Jose, CA, USA). The percentages of inhibition of cell viability were calculated as the ratio between the absorbance of the compound-treated cells and cells with only the vehicle. […] Linear regression (LR) was used for the analysis, considering results with r^2 > 0.9. All conditions were tested in triplicate and one independent assay (n = 3 data points).

[4] = tested on: Vero (ATCC CCL-81) cell line; assay: Cytotoxicity MTT assay (CC50); details: Vero cells
Method: as §1, §2

O=C(Nc1nc2cccnc2[nH]1)c1ccccc1NS(=O)(=O)c1ccc(Cl)cc1 [Compound 1]
% ZIKV NS2B/NS3pro Inhibition [Enzyme] = 0.2 nM ([1]; compound 25 µM (close to IC50)): 45 ± 0.1% | % ZIKV NS2B/NS3pro Inhibition [Enzyme] = 2 nM ([1]; compound 25 µM (close to IC50)): 26 ± 7% | % ZIKV NS2B/NS3pro Inhibition (100 µM) 0.001% Triton [1]: 93 ± 8% | % ZIKV NS2B/NS3pro Inhibition (100 µM) 0.01% Triton [1]: 47 ± 34% | % ZIKV NS2B/NS3pro Inhibition (100 µM) BSA [1]: 69 ± 6% | % ZIKV NS2B/NS3pro Inhibition (100 µM) With Preincubation [1]: 100 ± 0% | % ZIKV NS2B/NS3pro Inhibition (100 µM) Without Preincubation [1]: 100 ± 0% | Hill Slope Replica 1 [1]: 3.046 | Hill Slope Replica 2 [1]: 1.585 | inhibition at 25 µM ([2]; compound 25 µM): 97 ± 7% | CC50 at 72 h [3]: 22 ± 0.79 µM | Cell viability as percentage of cell control (mean absorbance / CELL) ([4]; compound 12.5 µM): 61.7079 | Cell viability as percentage of cell control (mean absorbance / CELL) ([4]; compound 50 µM): 24.3591 | Cell viability as percentage of cell control (mean absorbance / CELL) ([4]; compound 100 µM): 20.1848

O=C(Nc1nc2cccnc2[nH]1)c1ccccc1NS(=O)(=O)c1ccc(F)cc1 [Compound 2]
% ZIKV NS2B/NS3pro Inhibition [Enzyme] = 0.2 nM ([1]; compound 25 µM (close to IC50)): 30 ± 0.1% | % ZIKV NS2B/NS3pro Inhibition [Enzyme] = 2 nM ([1]; compound 25 µM (close to IC50)): 28 ± 7% | % ZIKV NS2B/NS3pro Inhibition (100 µM) 0.001% Triton [1]: 94 ± 7% | % ZIKV NS2B/NS3pro Inhibition (100 µM) 0.01% Triton [1]: 30 ± 19% | % ZIKV NS2B/NS3pro Inhibition (100 µM) BSA [1]: 32 ± 2% | % ZIKV NS2B/NS3pro Inhibition (100 µM) With Preincubation [1]: 100 ± 0% | % ZIKV NS2B/NS3pro Inhibition (100 µM) Without Preincubation [1]: 100 ± 0% | Hill Slope Replica 1 [1]: 0.731 | Hill Slope Replica 2 [1]: 4.089 | inhibition at 25 µM ([2]; compound 25 µM): 42 ± 11% | CC50 at 72 h [3]: 32.5 ± 1.95 µM | Cell viability as percentage of cell control (mean absorbance / CELL) ([4]; compound 12.5 µM): 77.4987 | Cell viability as percentage of cell control (mean absorbance / CELL) ([4]; compound 25 µM): 53.4692 | Cell viability as percentage of cell control (mean absorbance / CELL) ([4]; compound 50 µM): 30.8677 | Cell viability as percentage of cell control (mean absorbance / CELL) ([4]; compound 100 µM): 25.9519

O=C(Nc1nc2cnccc2[nH]1)c1ccccc1NS(=O)(=O)c1ccc(F)cc1 [Compound 3]
% ZIKV NS2B/NS3pro Inhibition (100 µM) Without Preincubation [1]: 56 ± 11% | CC50 at 72 h [3]: 120 ± 3.68 µM | Cell viability as percentage of cell control (mean absorbance / CELL) ([4]; compound 12.5 µM): 86.7535 | Cell viability as percentage of cell control (mean absorbance / CELL) ([4]; compound 25 µM): 77.5537 | Cell viability as percentage of cell control (mean absorbance / CELL) ([4]; compound 50 µM): 72.6654 | Cell viability as percentage of cell control (mean absorbance / CELL) ([4]; compound 100 µM): 56.6548

O=C(Nc1nc2cnccc2[nH]1)c1ccccc1NS(=O)(=O)c1ccc(Cl)cc1 [Compound 4]
% ZIKV NS2B/NS3pro Inhibition [Enzyme] = 0.2 nM ([1]; compound 25 µM (close to IC50)): 44 ± 0.2% | % ZIKV NS2B/NS3pro Inhibition [Enzyme] = 2 nM ([1]; compound 25 µM (close to IC50)): 29 ± 8% | % ZIKV NS2B/NS3pro Inhibition (100 µM) 0.001% Triton [1]: 93 ± 8% | % ZIKV NS2B/NS3pro Inhibition (100 µM) 0.01% Triton [1]: 25 ± 15% | % ZIKV NS2B/NS3pro Inhibition (100 µM) BSA [1]: 45 ± 4% | % ZIKV NS2B/NS3pro Inhibition (100 µM) With Preincubation [1]: 100 ± 0% | % ZIKV NS2B/NS3pro Inhibition (100 µM) Without Preincubation [1]: 100 ± 0% | Hill Slope Replica 1 [1]: 0.8047 | Hill Slope Replica 2 [1]: 0.5347 | % Cruzain Inhibition ([2]; compound 25 µM): no inhibitory activity | inhibition at 25 µM ([2]; compound 25 µM): -12 ± 9.1% | CC50 at 72 h [3]: 57.1 ± 1.86 µM | Cell viability as percentage of cell control (mean absorbance / CELL) ([4]; compound 12.5 µM): 84.584 | Cell viability as percentage of cell control (mean absorbance / CELL) ([4]; compound 25 µM): 66.5687 | Cell viability as percentage of cell control (mean absorbance / CELL) ([4]; compound 50 µM): 49.8167 | Cell viability as percentage of cell control (mean absorbance / CELL) ([4]; compound 100 µM): 25.183

O=C(Nc1nc2cccc(Cl)c2[nH]1)c1ccccc1NS(=O)(=O)c1ccc(F)cc1 [Compound 5]
% ZIKV NS2B/NS3pro Inhibition [Enzyme] = 0.2 nM ([1]; compound 10 µM (close to IC50)): 62 ± 0.1% | % ZIKV NS2B/NS3pro Inhibition [Enzyme] = 2 nM ([1]; compound 10 µM (close to IC50)): 23 ± 8% | % ZIKV NS2B/NS3pro Inhibition (100 µM) 0.001% Triton [1]: 93 ± 3% | % ZIKV NS2B/NS3pro Inhibition (100 µM) 0.01% Triton [1]: 6 ± 8% | % ZIKV NS2B/NS3pro Inhibition (100 µM) BSA [1]: 94 ± 8% | % ZIKV NS2B/NS3pro Inhibition (100 µM) With Preincubation [1]: 100 ± 0% | % ZIKV NS2B/NS3pro Inhibition (100 µM) Without Preincubation [1]: 100 ± 0% | Hill Slope Replica 1 [1]: 3.333 | Hill Slope Replica 2 [1]: 1.731 | inhibition at 10 µM ([2]; compound 10 µM): 69 ± 24% | CC50 at 72 h [3]: < 12.5 µM | Cell viability as percentage of cell control (mean absorbance / CELL) ([4]; compound 12.5 µM): 44.8735 | Cell viability as percentage of cell control (mean absorbance / CELL) ([4]; compound 25 µM): 19.4433 | Cell viability as percentage of cell control (mean absorbance / CELL) ([4]; compound 50 µM): 14.9121 | Cell viability as percentage of cell control (mean absorbance / CELL) ([4]; compound 100 µM): 15.1318
